# Values quoted from earlier work as cited in patent publication US20050147663A1, “Method of treatment for improved bioavailability” (priority 2003, published 2005).
# Tests used:
# [1] = enhanced by food in some instances, reduced in others
# [2] = standard breakfast; capsules
# [3] = delayed release formulations, drug given 30 minutes after food
SMILES,bioavailability affected by the presence of food [1],other results
COc1ccc2[n-]c([S+]([O-])Cc3ncc(C)c(OC)c3C)nc2c1.COc1ccc2[n-]c([S+]([O-])Cc3ncc(C)c(OC)c3C)nc2c1.[Mg+2] (centres unmarked) [esomeprazole magnesium],–,"decrease of the drug AUC (delayed release capsules, administration after food intake): 43-53%"
Cc1c(OCC(F)(F)F)ccnc1C[S+]([O-])c1nc2ccccc2[nH]1 (centres unmarked) [lansoprazole],–,AUC diminished [3]: 50-70%; Cmax diminished [3]: 50-70%
CC(C)CN(C[C@@H](O)[C@H](Cc1ccccc1)NC(=O)O[C@H]1CCOC1)S(=O)(=O)c1ccc(N)cc1 [amprenavir],affected,–
CC(C)(C)NC(=O)[C@@H]1CN(Cc2cccnc2)CCN1C[C@@H](O)C[C@@H](Cc1ccccc1)C(=O)N[C@H]1c2ccccc2C[C@H]1O [indinavir],affected,–
COc1ccc2[nH]c([S+]([O-])Cc3ncc(C)c(OC)c3C)nc2c1 (centres unmarked) [omeprazole],–,"reduction in Cmax (20 mg delayed release capsule, administered with applesauce): 25%; food effect (40 mg delayed release capsule, with applesauce): does not show a food effect"
C[C@H]1c2cccc(O)c2C(=O)C2=C(O)[C@]3(O)C(=O)C(C(N)=O)=C(O)[C@@H](N(C)C)[C@@H]3[C@@H](O)[C@@H]21 [doxycycline],–,bioavailability as judged by AUC and Cmax [2]: reduced
O=C1Nc2ccc(Cl)cc2[C@@](C#CC2CC2)(C(F)(F)F)O1 [efavirenz],affected,–
COc1ccnc(C[S+]([O-])c2nc3ccc(OC(F)F)cc3[nH]2)c1OC (centres unmarked) [pantoprazole sodium],–,"Tmax variability (delayed release product): highly variable; Tmax change when given with food (delayed release product, given with food): can increase significantly"

# Continued, in another order:
bioavailability affected by the presence of food [1],SMILES,other results
affected,Cc1cn([C@H]2C[C@H](N=[N+]=[N-])[C@@H](CO)O2)c(=O)[nH]c1=O [zidovudine],–
affected,CC(C)(C)NC(=O)[C@@H]1C[C@@H]2CCCC[C@@H]2CN1C[C@@H](O)[C@H](Cc1ccccc1)NC(=O)[C@H](CC(N)=O)NC(=O)c1ccc2ccccc2n1 [saquinavir],–
affected,Nc1ccn([C@H]2CC[C@@H](CO)O2)c(=O)n1 [zalcitabine],–
affected,Cc1c(O)cccc1C(=O)N[C@@H](CSc1ccccc1)[C@H](O)CN1C[C@H]2CCCC[C@H]2C[C@H]1C(=O)NC(C)(C)C [nelfinavir],–
affected,CC(C)c1nc(CN(C)C(=O)N[C@H](C(=O)N[C@@H](Cc2ccccc2)C[C@H](O)[C@H](Cc2ccccc2)NC(=O)OCc2cncs2)C(C)C)cs1 [ritonavir],–
affected,Nc1ccn([C@@H]2CS[C@H](CO)O2)c(=O)n1 [lamivudine],–
